From patent publication US20150273076A1, “SP1 POLYPEPTIDES, MODIFIED SP1 POLYPEPTIDES AND USES THEREOF” (Fulcrum SP Ltd., priority 2006, published 2015)

Assay: Doxorubicin complex formation and release (ultrafiltration, HPLC, SDS PAGE fluorescence)
Assay type: binding
Details: reducing conditions (DTT or GSH)
Description: Pure wild type SP1 or Cys2 SP1 mutant (1.5 mg/ml in 20 mM Sodium Phosphate buffered, pH=6.8) were incubated overnight at room temp, with DOX 1 mg/ml in the presence of DTT (10 mM), with gentle rolling. Binding reaction was stopped by adding hydrogen peroxide (0.01%), followed by ultra filtration (using 30 kD cutoff filter) and extensive wash until follow-through become colorless. Optical density was measured at both 278 and 477 nm using nanodrop spectrophotometer. Note the dramatic effect of the reducing agent on drug binding by the Cys2 SP1, compared to the absence of effect on the wild type SP1.
FIG. 13 is a histogram illustrating the redox-dependent release of Doxorubicin by Cys2 SP1. Doxorubicin (DOX) was complexed within Cys2 SP1 as described in FIGS. 9-12 above. Release of the drug in the presence of 0, 2 and 20 mM GSH was measured by ultrafiltration and size exclusion HPLC analysis (detection at 228 and 475 nm);
FIG. 14 is a histogram illustrating the effect of oxidation on DOX complex formation by Cys2 SP1. Doxorubicin (DOX) was reacted with Cys2 SP1 and wild type SP1 as described in FIGS. 9-13 above. Oxidized protein indicates exposure to excess of H2O2 prior to treatment with GSH. DOX complex formation was measured by ultrafiltration and size exclusion HPLC analysis (detection at 228 and 475 nm). […] 1=the retentate; 2=the flow through; and 3=a DOX standard 20 μg/ml.
FIG. 17 is a photograph of a fluorescent PAGE analysis illustrating effective complex formation with DOX by Cys2 and SP1 fusion proteins. Recombinant wild type (lanes 1 and 2), Cys2 (lanes 3 and 4), and SP1 fusion proteins having additional N-terminal tumor specific peptide RGD (CRGD, SEQ ID NO:151; fusion protein is SEQ ID NO: 5)(lanes 5 and 6), or RGD in reverse order (RGDC, SEQ ID NO: 152; fusion protein is SEQ ID NO: 6)(lanes 7 and 8) were reacted with DOX to form complex as described in FIGS. 9-14 above, and then separated on SDS-PAGE with (lanes 2, 4, 6 and 8) or without (lanes 1, 3, 5 and 7) denaturation by boiling in LSB.
Ultrafiltration was used for the detection of complex formation with the water soluble ligands FA and DOX which have a distinctive absorption properties and can be determined by spectroscopic measurements. […] Several additional washing cycles remove all remaining free FA and DOX, and the ligand-SP1 complex remains in the retained fraction.
Size exclusion chromatography is a common method for separation of molecules of different sizes under mild conditions and was employed to test FA and DOX complex formation under mild conditions. SP1 is eluted from the column after 7 min and is detected at 278 nm only, and free FA is eluted from the column (TSK G3000 SWXL, Tosohaas) after 16 min and is detected at 490 nm. The SP1-FA and SP1-DOX complexes also eluted at the same time but is detected also at 490 and 475 nm, respectively. DOX/SP1 ratio is determine from the standard curve obtained in solution.
Reverse phase HPLC (RP-HPLC) analysis separates between free DOX, PXT, and SP1. Both compounds bind to the resin (C-18) and are eluted at different acetonitrile concentrations, and detected at both 278 and 225 nm (SP1), 225 nm (PTX) and 477 nm (DOX).
Pyrogen free Cys2 SP1 variant (SEQ ID NO:3) in 20 mM (Na Phosphate buffer pH-6.7) final 2 mg/ml was diluted with DOX solution (Teva, Israel) 1:2 dilution final 1 mg/ml. Where indicated, GSH was added, and the solution is mixed overnight. Where indicated (oxidized), H2O2 is added to 0.1%, buffer added to 3× volume, and the solution is sonicated (3×22 sec. 1:1 pulse/pause at 3% amplitude 0.5 min. pause, using a Vibra-Cell 750 W sonicator).

Substance: wild type: stress related SP1 protein from aspen (Populus tremula), recombinant, SEQ ID NO:1
- DOX complex formation: much lower extent
- DOX complex formation (listed as wild type SP1): no complexes are formed
